Assays:
[1] = test system: GM03123 (NPC) fibroblast cell line; assay: NPC cholesterol activity: filipin staining, LSO ratio; format: cell-based, human; conditions: for LSO %: GM03123 (NPC), 48 hours
Source text: (§1) Fibroblast cell lines derived from Alzheimer and Niemann-Pick Type C (NPC) patients and healthy controls were obtained from the […] (Camden, N.J., USA). Cell line GM03123 was derived from a NPC patient with two heterozygous mutations in the NPC1 gene. Cell line GM09503 was used as a healthy control for the NPC cell line. Cell line ND41001 was derived from a patient carrying a Presenilin 1 mutation with familial (early onset) Alzheimer's disease (AD). Cell line ND38530 was used as a healthy control for the AD cell line. Further details of the cell lines are available at the Cornell Cell Repository website (https://catalog.coriell.org/).
(§2) Cell culture work was carried out in sterile conditions in an Email Air Handling Class II Biological Safety Cabinet (AES Environmental Pty LTD, Australia). All cell lines were cultured in DMEM (10313-021, Life Technologies New Zealand) supplemented with 10% fetal calf serum (Thermo Fisher Scientific New Zealand), 1× GlutaMAX™ Supplement (stabilised L-glutamine, Gibco Life Technologies New Zealand), 100 units/mL penicillin and 100 units/mL streptomycin (Life Technologies New Zealand). Cell lines were maintained in or 75 cm^2 flasks (Corning, Invitro Technologies New Zealand) in a humidified incubator (Sanyo Electric Co. Ltd, Japan) at 37° C. and 5% CO2. Experimental cultures were carried out in the same media omitting the antibiotics to avoid any potential interaction with the compound being tested.
(§3) For experiments, cells were seeded at a density of 1.25×10^3 cells/mL in black, 96 well plates (Cell-carrier, Perkin Elmer, Scimed New Zealand) in a volume of 100 μL media and grown for 24 hours before treating. The media was then replaced with fresh media supplemented with the required treatment. Cell lines GM03123 and ND41001 were either left untreated, or treated with either 10 μM or 100 μM of the heparan sulphate compound dissolved in sterile deionised water (dH20), 10 μM suberoylanilide hydroxamic acid (SAHA) dissolved in DMSO, or 0.1% DMSO. The healthy control cell lines GM09503 and ND38530 were left untreated or treated with U18666A dissolved in sterile dH20 at a final concentration of 1 μg/mL. U18666A causes cholesterol accumulation in the cell and is therefore a positive control for the filipin stain. Cells were then grown for 48 hours.
(§4) Before fixing, cells were washed three times with 1× phosphate buffered saline (PBS). From this point all treatments and washes were undertaken on a rotating table at 45 revs per minute. Cells were fixed with 1.5% paraformaldehyde (PFA) in 1×PBS (Thermo Fisher Scientific New Zealand) for 20 minutes. Cells were then washed with 1×PBS for four minutes. This was repeated twice. The cells were then stained for 2 hours with 50 μg/mL Filipin dye (Filipin complex from Streptomyces filipinensis, Sigma Aldrich, Australia) protected from the light. With minimal light exposure, the cells were washed with 1×PBS for four minutes and this was repeated twice. Cells were left in 1×PBS for confocal microscopy. The filipin stained cells were imaged using a Perkin Elmer Opera™ high-throughput spinning disk confocal microscope using 405 nm laser and 20× water immersion objective. Perkin Elmer Acapella™ software was used for image analysis. In NPC cells cholesterol accumulates in organelles with the characteristics of late endosomes or early lysosomes. These can be described as lysosome-like storage organelles (LSO). Analysis of free cholesterol levels in the cells was carried out using a method designed for high throughput confocal images described by Pipalia et al., Automated microscopy screening for compounds that partially revert cholesterol accumulation in Niemann-Pick C cells, J. Lipid Res., 2006, 47(2): 284-301. A low fluorescence threshold was chosen which identified the total area occupied by cells and another higher threshold was chosen to determine the areas of bright filipin staining of cholesterol within the cell. […]

[2] = test system: ND41001 (AD) fibroblast cell line; assay: as above; format: cell-based, human; conditions: 48 hours
Source text: as §1, §2, §3, §4

## O=C(CCCCCCCNC(=O)CCOCC(COCCC(=O)NCCCCCCCC(=O)NCCOCCOCCOCCC(=O)NCCCCCCOC1OC(COS(=O)(=O)[O-])C(OC2OC(COS(=O)(=O)[O-])C(OS(=O)(=O)[O-])C(OS(=O)(=O)[O-])C2OS(=O)(=O)[O-])C(OS(=O)(=O)[O-])C1OS(=O)(=O)[O-])(COCCC(=O)NCCCCCCCC(=O)NCCOCCOCCOCCC(=O)NCCCCCCOC1OC(COS(=O)(=O)[O-])C(OC2OC(COS(=O)(=O)[O-])C(OS(=O)(=O)[O-])C(OS(=O)(=O)[O-])C2OS(=O)(=O)[O-])C(OS(=O)(=O)[O-])C1OS(=O)(=O)[O-])COCCC(=O)NCCCCCCCC(=O)NCCOCCOCCOCCC(=O)NCCCCCCOC1OC(COS(=O)(=O)[O-])C(OC2OC(COS(=O)(=O)[O-])C(OS(=O)(=O)[O-])C(OS(=O)(=O)[O-])C2OS(=O)(=O)[O-])C(OS(=O)(=O)[O-])C1OS(=O)(=O)[O-])NCCOCCOCCOCCC(=O)NCCCCCCOC1OC(COS(=O)(=O)[O-])C(OC2OC(COS(=O)(=O)[O-])C(OS(=O)(=O)[O-])C(OS(=O)(=O)[O-])C2OS(=O)(=O)[O-])C(OS(=O)(=O)[O-])C1OS(=O)(=O)[O-].[Na+].[Na+].[Na+].[Na+].[Na+].[Na+].[Na+].[Na+].[Na+].[Na+].[Na+].[Na+].[Na+].[Na+].[Na+].[Na+].[Na+].[Na+].[Na+].[Na+].[Na+].[Na+].[Na+].[Na+].[Na+].[Na+].[Na+].[Na+] (centres unmarked) [Compound 25a]
[1]; 10 μM, LSO ratio treated/untreated x 100
  LSO %: 76.1%
[1]; 100 μM
  LSO %: 64.2%
[1]; fibroblast cells derived from Niemann-Pick type C and Alzheimer's disease patients
  effect on filipin (cholesterol) fluorescence (in words): positive effect on filipin (cholesterol) fluorescence
[2]; 10 μM
  LSO %: 60.1%
[2]; 100 μM
  LSO %: 67.9%
